Experiments:
[1] = biological target: T1, cholesterol esterase (CE) (Homo sapiens, UniProt P19835); assay: Kinetic inhibition studies of CE with substrate p-nitrophenylbutyrate, Dixon plots; conditions: for inhibition of CE (in words): kinetic inhibition studies
T1 sequence (P19835 21-753): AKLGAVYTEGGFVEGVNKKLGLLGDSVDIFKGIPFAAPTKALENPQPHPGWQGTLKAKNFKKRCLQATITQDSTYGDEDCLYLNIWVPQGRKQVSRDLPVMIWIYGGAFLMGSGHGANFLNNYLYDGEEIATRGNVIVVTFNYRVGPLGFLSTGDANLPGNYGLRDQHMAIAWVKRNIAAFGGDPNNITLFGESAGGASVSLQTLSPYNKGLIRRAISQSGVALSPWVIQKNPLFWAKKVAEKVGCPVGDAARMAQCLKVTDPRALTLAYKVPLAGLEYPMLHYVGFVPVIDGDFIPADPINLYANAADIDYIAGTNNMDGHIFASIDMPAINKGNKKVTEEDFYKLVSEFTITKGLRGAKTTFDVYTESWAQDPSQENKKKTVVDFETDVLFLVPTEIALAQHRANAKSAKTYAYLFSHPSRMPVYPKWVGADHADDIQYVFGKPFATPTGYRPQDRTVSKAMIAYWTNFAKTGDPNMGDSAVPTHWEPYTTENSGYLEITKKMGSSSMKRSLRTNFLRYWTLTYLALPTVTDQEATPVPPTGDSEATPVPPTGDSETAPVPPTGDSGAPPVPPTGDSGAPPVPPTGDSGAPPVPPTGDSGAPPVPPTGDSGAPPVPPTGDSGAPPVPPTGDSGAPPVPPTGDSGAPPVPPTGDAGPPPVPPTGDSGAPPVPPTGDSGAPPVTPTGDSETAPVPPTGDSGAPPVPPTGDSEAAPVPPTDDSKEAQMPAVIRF

[2] = rats, single intragastric dose simultaneous with feeding of cholesterol ester; cited from earlier work
lumenal CE = biological target: T2, lumenal CE (Rattus norvegicus, UniProt P07882); conditions: rats, single intragastric dose simultaneous with feeding of cholesterol ester; cited from earlier work
T2 construct: from tissue; host or cells: rat intestinal lumen (in vivo)
T2 sequence (P07882 21-612): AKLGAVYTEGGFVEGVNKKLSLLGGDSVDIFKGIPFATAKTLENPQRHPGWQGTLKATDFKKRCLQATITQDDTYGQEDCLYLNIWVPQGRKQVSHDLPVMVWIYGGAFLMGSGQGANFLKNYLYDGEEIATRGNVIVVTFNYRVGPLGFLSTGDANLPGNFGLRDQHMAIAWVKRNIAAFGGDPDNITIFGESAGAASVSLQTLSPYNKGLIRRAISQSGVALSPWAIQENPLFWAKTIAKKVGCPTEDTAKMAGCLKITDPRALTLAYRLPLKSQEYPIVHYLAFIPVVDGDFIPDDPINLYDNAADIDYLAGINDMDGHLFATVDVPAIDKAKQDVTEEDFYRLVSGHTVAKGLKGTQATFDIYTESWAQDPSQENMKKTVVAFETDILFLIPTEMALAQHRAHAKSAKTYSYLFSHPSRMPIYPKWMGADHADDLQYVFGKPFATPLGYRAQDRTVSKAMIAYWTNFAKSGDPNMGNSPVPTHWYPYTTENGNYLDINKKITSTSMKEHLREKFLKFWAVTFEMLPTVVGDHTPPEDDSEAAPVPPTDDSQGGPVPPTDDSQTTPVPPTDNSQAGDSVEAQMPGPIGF

CE = biological target: T3, CE (Homo sapiens, UniProt P19835); conditions: in vitro; cited from earlier work
T3 sequence (P19835 21-753): T1 sequence (P19835 21-753)

chymotrypsin = chymotrypsin (Bos taurus, UniProt P00766); assay: Inhibition of chymotrypsin; type: biochemical
Text: Thus, the compounds of the present invention which have a saturated ring as part of the 3-substituent provide tremendous selectivity when compared to compounds where the 3-substituent includes an aromatic ring.

## O=c1oc(Cl)ccc1CC1CCCCC1 [Example 2]
[1]
  inhibition of CE (in words): potent inhibitors of CE

## O=c1oc(Cl)ccc1Cc1ccccc1 [3-benzyl-6-chloropyrone]
[2]
  drop in cholesterol absorption: 60%
Lumenal CE
  inactivation of lumenal CE activity: 63%
CE
  half life of CE inactivation: 1.67 min

## O=c1oc(Cl)ccc1CCCC1CCCCC1 [Example 4]
[1]
  inhibition of CE (in words): potent inhibitors of CE

## O=c1oc(Cl)ccc1CCC1CCCCC1 [Example 3]
chymotrypsin
  Ki: 50 µM
[1]; calculated Ki, apparent Ki from Dixon plots, equals one half of the concentration of CE used in the assay
  Ki: 0.03 µM

— patent EP1323715B1, “Inhibitors of cholesterol esterase” (The University of New Mexico, priority 1997, dated 1998)
